Reference: ChEMBL document CHEMBL1152560, “Substituted 2-arylbenzothiazoles as kinase inhibitors: hit-to-lead optimization” (Bioorg Med Chem, 2009)

What was measured:
[1] = molecular target: T1, Serine/threonine-protein kinase DCLK2 (Homo sapiens) (UniProt Q8N568); assay: Residual activity of DCAMKL2 at 1 uM by microplate scintillation counting
T1 sequence (whole entry): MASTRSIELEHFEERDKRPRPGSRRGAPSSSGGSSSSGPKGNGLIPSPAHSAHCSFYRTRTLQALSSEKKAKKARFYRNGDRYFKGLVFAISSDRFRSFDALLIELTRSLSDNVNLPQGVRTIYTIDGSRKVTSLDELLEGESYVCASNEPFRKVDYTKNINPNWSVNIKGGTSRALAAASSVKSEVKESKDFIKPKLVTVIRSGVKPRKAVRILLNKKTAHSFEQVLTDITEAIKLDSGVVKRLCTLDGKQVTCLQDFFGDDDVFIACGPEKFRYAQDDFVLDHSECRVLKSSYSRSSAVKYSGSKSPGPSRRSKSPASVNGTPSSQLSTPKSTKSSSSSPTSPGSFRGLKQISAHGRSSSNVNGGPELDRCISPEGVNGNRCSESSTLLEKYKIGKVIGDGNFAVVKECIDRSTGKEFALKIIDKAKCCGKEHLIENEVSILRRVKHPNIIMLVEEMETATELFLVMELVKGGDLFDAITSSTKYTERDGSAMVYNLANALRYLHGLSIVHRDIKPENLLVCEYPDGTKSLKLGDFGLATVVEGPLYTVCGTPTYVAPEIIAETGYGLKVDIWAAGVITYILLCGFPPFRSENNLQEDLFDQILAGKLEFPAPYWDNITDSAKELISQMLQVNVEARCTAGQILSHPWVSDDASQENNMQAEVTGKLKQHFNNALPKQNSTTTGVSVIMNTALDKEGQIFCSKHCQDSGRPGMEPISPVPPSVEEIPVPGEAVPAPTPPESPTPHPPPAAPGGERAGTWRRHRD

[2] = molecular target: Casein kinase II subunit alpha' (Homo sapiens) (UniProt P19784); assay: Residual activity of CK2alpha2 at 0.1 uM by microplate scintillation counting
Chain of Casein kinase II subunit alpha' (Homo sapiens) (P19784 whole entry, looked up): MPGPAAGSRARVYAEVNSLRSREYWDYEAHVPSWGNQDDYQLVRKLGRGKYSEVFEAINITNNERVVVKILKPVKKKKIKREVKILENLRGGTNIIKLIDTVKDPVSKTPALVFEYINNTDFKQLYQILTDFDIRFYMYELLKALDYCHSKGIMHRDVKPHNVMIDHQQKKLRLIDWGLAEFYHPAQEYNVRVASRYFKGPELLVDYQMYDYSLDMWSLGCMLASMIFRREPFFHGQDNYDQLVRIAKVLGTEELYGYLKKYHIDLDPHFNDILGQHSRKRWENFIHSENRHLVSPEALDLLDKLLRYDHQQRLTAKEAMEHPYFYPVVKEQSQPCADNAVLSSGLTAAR

[3] = molecular target: Serine/threonine-protein kinase WNK3 (Homo sapiens) (UniProt Q9BYP7); assay: Residual activity of WNK3 at 1 uM by microplate scintillation counting
Chain of Serine/threonine-protein kinase WNK3 (Homo sapiens) (Q9BYP7 whole entry): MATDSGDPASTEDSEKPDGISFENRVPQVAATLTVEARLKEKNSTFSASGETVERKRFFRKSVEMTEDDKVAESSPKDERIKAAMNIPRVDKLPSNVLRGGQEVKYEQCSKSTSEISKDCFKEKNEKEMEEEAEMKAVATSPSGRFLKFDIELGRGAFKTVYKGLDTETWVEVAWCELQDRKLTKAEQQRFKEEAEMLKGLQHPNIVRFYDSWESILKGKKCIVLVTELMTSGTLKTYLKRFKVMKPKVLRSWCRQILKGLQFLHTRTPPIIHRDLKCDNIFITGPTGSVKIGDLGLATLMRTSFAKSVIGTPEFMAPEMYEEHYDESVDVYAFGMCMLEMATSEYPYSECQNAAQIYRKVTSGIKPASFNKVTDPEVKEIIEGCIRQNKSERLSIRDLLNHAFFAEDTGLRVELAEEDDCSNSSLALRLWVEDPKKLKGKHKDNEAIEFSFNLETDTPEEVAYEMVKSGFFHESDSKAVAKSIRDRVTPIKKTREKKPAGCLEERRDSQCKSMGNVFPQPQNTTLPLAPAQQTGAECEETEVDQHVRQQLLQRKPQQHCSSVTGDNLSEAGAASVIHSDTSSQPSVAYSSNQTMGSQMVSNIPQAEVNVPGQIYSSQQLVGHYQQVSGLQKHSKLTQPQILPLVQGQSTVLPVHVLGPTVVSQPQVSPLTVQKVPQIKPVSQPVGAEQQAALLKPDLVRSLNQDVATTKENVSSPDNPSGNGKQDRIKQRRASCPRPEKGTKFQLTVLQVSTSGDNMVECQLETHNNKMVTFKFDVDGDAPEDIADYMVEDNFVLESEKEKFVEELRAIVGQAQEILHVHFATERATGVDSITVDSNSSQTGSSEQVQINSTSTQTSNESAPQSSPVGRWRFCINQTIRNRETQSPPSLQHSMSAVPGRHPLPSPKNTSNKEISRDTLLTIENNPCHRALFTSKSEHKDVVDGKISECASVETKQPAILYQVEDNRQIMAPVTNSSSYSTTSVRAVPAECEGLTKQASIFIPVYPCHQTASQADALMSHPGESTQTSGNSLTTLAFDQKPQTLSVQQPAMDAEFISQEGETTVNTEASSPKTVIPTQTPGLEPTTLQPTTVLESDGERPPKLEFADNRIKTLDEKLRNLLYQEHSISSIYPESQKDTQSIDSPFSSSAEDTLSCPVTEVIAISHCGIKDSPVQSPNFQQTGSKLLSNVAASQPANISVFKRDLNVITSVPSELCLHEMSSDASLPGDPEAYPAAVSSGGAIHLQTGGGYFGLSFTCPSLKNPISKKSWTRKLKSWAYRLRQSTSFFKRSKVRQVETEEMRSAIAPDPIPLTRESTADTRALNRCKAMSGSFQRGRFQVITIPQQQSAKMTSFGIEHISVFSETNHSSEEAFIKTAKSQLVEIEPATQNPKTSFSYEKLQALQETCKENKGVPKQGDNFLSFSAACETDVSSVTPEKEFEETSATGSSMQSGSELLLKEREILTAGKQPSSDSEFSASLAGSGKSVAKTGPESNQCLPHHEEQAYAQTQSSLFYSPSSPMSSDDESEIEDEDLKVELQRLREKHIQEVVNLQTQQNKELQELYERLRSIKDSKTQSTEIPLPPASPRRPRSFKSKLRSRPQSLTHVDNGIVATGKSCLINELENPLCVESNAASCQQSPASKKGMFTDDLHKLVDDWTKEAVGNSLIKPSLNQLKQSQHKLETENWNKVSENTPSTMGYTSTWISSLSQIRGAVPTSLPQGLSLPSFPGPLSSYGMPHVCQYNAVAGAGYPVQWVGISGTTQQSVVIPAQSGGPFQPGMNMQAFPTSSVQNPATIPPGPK

[4] = molecular target: T2, Serine/threonine-protein kinase VRK1 (Homo sapiens) (UniProt Q99986); assay: Residual activity of VRK1 at 0.1 uM by microplate scintillation counting
T2 sequence (whole entry): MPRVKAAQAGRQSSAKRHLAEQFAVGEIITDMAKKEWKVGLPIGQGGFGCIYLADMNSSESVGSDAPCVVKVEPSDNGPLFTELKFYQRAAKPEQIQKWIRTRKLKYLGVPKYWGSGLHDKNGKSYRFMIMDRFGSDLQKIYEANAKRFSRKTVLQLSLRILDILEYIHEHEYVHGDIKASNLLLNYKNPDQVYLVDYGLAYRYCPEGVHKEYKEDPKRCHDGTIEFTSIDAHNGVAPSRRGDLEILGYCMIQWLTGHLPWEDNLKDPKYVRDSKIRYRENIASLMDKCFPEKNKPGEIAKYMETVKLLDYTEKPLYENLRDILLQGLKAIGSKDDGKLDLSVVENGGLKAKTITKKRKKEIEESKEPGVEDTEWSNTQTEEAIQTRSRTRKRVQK

[5] = molecular target: T3, NUAK family SNF1-like kinase 1 (Homo sapiens) (UniProt O60285); assay: Residual activity of ARK5 at 1 uM by microplate scintillation counting
T3 sequence (whole entry): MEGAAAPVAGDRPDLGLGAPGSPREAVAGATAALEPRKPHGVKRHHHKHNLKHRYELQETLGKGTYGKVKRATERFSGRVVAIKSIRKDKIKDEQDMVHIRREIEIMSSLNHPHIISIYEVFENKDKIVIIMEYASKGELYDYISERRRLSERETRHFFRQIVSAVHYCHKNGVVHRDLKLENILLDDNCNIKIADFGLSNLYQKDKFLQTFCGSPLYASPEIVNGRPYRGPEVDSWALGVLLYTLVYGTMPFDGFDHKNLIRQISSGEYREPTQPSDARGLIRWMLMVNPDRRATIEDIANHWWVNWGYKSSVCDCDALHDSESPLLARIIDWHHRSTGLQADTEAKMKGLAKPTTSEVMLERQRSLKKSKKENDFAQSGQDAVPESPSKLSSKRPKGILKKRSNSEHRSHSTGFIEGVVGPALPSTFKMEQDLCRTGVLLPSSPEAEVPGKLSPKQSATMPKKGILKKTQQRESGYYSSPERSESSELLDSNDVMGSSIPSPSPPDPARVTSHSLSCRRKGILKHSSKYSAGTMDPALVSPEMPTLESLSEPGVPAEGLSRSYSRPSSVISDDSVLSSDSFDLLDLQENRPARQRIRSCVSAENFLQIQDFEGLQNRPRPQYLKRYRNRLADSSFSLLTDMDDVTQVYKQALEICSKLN

[6] = molecular target: T4, Aurora kinase C (Homo sapiens) (UniProt Q9UQB9); assay: Residual activity of Aurora-C at 1 uM by microplate scintillation counting
T4 sequence (whole entry): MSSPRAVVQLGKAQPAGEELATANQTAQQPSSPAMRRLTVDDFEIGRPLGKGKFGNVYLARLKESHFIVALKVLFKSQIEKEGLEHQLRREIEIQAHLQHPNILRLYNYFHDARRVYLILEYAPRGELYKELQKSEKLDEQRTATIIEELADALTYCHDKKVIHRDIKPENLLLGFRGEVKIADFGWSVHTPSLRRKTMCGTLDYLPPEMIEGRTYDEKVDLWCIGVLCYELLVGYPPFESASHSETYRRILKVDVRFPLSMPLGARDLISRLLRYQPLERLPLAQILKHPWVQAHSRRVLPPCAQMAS

[7] = molecular target: CDC42BPA protein (Homo sapiens) (UniProt B9EGA7); assay: Residual activity of CDC42BPA at 10 uM by microplate scintillation counting
Chain of CDC42BPA protein (Homo sapiens) (B9EGA7 as listed by the source): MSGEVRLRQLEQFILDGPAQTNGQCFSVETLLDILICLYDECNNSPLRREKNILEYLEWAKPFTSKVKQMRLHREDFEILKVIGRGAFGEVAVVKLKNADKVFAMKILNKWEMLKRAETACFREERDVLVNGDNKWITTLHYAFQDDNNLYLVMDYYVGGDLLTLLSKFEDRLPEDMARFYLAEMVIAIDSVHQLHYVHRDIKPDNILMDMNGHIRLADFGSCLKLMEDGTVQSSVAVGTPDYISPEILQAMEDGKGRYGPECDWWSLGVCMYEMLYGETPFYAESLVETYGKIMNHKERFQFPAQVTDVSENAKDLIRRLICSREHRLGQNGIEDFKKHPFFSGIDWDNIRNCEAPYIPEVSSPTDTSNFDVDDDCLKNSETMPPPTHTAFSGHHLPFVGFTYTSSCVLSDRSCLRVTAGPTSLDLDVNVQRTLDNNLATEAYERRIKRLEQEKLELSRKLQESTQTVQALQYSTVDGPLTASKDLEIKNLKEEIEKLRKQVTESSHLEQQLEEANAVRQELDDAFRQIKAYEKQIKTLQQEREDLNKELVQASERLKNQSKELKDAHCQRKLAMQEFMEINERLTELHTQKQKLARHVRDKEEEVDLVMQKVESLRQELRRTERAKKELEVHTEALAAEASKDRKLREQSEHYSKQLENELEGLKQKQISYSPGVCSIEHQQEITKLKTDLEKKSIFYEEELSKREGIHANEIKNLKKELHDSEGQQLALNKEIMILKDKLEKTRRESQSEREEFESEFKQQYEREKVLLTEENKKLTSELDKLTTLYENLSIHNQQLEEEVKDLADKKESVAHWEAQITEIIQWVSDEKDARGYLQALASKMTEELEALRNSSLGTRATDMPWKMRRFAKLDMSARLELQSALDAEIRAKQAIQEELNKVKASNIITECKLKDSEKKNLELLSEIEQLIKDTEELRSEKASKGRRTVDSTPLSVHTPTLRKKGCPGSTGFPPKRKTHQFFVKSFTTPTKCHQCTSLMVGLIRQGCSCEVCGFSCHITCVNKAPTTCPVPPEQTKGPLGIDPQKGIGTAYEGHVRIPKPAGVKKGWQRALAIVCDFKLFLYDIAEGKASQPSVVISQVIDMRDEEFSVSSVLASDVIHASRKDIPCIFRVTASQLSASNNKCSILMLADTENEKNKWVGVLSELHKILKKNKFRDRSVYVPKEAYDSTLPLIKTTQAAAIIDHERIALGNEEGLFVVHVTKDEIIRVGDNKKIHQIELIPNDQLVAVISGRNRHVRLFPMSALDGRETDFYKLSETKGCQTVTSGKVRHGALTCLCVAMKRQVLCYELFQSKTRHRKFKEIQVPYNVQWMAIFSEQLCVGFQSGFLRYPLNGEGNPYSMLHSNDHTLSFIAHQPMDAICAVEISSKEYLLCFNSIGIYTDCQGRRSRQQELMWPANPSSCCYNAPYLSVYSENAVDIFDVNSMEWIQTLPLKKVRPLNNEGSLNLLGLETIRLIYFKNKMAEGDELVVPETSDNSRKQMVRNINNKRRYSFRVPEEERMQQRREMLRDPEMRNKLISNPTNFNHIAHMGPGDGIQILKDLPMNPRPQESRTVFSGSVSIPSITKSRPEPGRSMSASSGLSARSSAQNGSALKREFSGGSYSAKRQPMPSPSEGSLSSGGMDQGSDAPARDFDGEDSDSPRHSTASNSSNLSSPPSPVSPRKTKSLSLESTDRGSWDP

[8] = molecular target: Casein kinase II subunit alpha (Homo sapiens) (UniProt P68400); assay: Residual activity of CK2alpha1 at 0.1 uM by microplate scintillation counting
Chain of Casein kinase II subunit alpha (Homo sapiens) (P68400 whole entry, looked up): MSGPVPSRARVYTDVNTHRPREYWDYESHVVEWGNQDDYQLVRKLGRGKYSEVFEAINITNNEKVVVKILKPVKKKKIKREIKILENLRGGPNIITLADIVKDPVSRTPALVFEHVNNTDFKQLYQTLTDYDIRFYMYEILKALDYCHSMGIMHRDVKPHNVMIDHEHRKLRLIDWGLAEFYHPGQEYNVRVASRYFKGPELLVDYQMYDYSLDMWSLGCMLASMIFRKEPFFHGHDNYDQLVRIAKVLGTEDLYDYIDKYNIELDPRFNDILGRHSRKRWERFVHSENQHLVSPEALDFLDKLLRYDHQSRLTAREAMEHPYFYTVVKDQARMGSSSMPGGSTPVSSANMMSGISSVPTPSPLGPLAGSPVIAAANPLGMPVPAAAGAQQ

[9] = molecular target: Protein kinase C alpha type (Homo sapiens) (UniProt P17252); assay: Residual activity of PKCalpha at 0.1 uM by microplate scintillation counting

residual activity [1] [%]	residual activity [2] [%]	residual activity [3] [%]	residual activity [4] [%]	residual activity [5] [%]	residual activity [6] [%]	residual activity [7] [%]	residual activity [8] [%]	residual activity [9] [%]	Structure (SMILES)
71	91	76	93	91	7	79	132	137	COc1cc2c(Oc3ccc(-c4nc5ccccc5s4)cc3)ncnc2cc1OCCCN1CCCC1
76	88	69	89	101	10	51	87	100	COc1cc2c(Oc3ccc(-c4nc5ccccc5s4)cc3F)ncnc2cc1OCCCN1CCN(C)CC1
80	98	64	97	88	11	61	95	108	COc1cc2c(Oc3ccc(-c4nc5ccccc5s4)cc3)ncnc2cc1OCCCN1CCN(C)CC1
